Target: T1, porcine pancreatic α-amylase (Sus scrofa, UniProt P00690)
T1 construct: purchased Megazyme, Inc
T1 sequence (P00690 16-511): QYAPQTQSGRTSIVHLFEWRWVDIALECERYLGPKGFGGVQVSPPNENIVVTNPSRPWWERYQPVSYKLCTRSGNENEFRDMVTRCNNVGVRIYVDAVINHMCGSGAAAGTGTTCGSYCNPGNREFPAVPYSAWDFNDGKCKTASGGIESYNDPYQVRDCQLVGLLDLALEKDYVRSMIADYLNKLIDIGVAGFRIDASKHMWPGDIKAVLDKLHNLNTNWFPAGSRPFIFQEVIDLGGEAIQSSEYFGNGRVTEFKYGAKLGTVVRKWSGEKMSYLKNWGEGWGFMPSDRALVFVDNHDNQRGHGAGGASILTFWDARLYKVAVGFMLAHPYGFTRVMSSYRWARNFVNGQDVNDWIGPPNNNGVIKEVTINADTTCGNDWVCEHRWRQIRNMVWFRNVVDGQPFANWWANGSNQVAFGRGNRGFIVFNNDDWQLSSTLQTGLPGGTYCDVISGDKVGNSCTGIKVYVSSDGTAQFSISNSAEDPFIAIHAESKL
Assay: colorimetric starch-iodine assay of amylase-mediated starch hydrolysis
Assay type: biochemical
Conditions: read-out: Fraction Inhibited (starch-iodine assay)
Description: The effectiveness of GMα (panel A) and GMβ (panel) to inhibit starch hydrolysis (1 mg/ml) mediated by porcine pancreatic α-amylase (1 μM) is shown as a function of the concentration of GMα and GMβ. The Fraction of Reaction Inhibited was calculated using U/ml values determined from the iodine-starch assay as described by (ref), with U/ml=(As62 control−As62 sample)/(As62 starch×20 min×0.1 ml reaction volume), a value that can be interpreted as mg of starch hydrolyzed per minute. The Fraction of “Unfolded” Starch was calculated in the absence of enzyme as A562 taken in the presence of GMα (panel C) and GMβ (panel D) divided by A562 taken in the absence of the GM. General solution conditions are 20 mM potassium phosphate, pH 7, 30° C.;
A standard curve was constructed using 100 μL of 6 concentrations (0-1.0 mg/ml) and 100 μL of soluble starch. A total of 100 μL of 1 mg/ml of soluble starch+/−varying concentrations of GMs were incubated for 20 minutes at 30° C.+/−5 μL enzyme, for a total concentration of 1 μM PPA/well, and the absorbance read at 520 nm.

C[C@H]1O[C@H](O[C@H]2[C@H](O)[C@@H](O)[C@@H](O[C@H]3[C@H](O)[C@@H](O)C(O)O[C@@H]3CO)O[C@@H]2CO)[C@H](O)[C@@H](O)[C@@H]1N[C@H]1C=C(CO)[C@@H](O)[C@H](O)[C@H]1O (stereo partly shown) [Acarbose, acarbose]
inhibition at 400 µM: 79%
